Experimental data reported in US20250339399A1, “SUPRAMOLECULAR SELF-ASSEMBLY SYSTEM” (Beijing Creatron Institute of Pharmaceutical Research Co., …, priority 2022, published 2025).

What was measured:
[1] = Guest molecule concentration after incubation in initial medium without polymer (Comparative Example 1); format: physicochemical; details: 37° C.
Method in brief: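 Dissolved guest content measured by HPLC of centrifuged supernatants (37° C., 13000 rpm, 5 min) sampled at 0.5 h, 3 h and 6 h. Incubation was polymer-free at 37° C.±0.5° C. in buffers of pH 2.0-7.4; nominal loading was set by maximum clinical dose.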

[2] = Binary supramolecular self-assembly systems of polymer and target: guest concentration over incubation time (Comparative Example 2); format: physicochemical
Method: Experiments were conducted according to the steps in Comparative Example 1, and quantitative analysis was carried out using the analytical method for each target to investigate the regulation ability […] stacking.

[3] = Binary (carrier), ternary and quaternary supramolecular self-assembly systems of polymer, carrier building block and target: guest concentration over incubation time (Examples 1-56); format: physicochemical; details: 6 h
Method: pH 2.0 hydrochloric acid, pH 4.5 acetate, and pH 6.5, pH 6.8, or pH 7.4 phosphate buffer solutions were prepared. The selection of each initial medium followed the principle that the solubility in the initial medium of the selected targets (or active ingredients) should low enough, but should meet the detection sensitivity and accuracy requirements of the corresponding analytical methods. Each buffer as initial media was placed in a 50 ml test tube with a stopper, shaken in a constant temperature air shaker at 37° C.±0.5° C., with an amplitude of 200 rpm, and incubated for 1 hour. […] Samples were taken at 0.5 h, 3 h and 6 h after incubation, centrifuged at 37° C., 13000 rpm for 5 minutes, and the supernatant was diluted at least 10 times with the mobile phase under the target analyte analytical method, filtered, the initial filtrate was discarded, and the continued filtrate was used as the test solution for injection analysis. The corresponding HPLC method under each target object item in Table 8 was used to determine the content of each target substance. When the solubility of the target in the initial medium is below the quantitative limit of the analytical method, a small amount of surfactant, such as sodium dodecyl sulfate (SDS), Tween20, or Tween80, can be added appropriately.
Experiments were conducted according to the steps in Comparative Example 1, and quantitative analysis was carried out using the analytical method for each target to investigate the regulation ability of each binary supramolecular self-assembly system built from 0.5% polymer and target on guest molecules stacking.
Ternary supramolecular self-assembly systems based on different polymers, carrier building blocks, and targets were built according to the experimental scheme in Table 12, to investigate the influence of synergistic regulation of the carrier building blocks and the polymers on the stacking of target molecules, as well as the stability of the supramolecular self-assembly systems jointly built by them over incubation time. The initial medium, quantitative analysis method, pre-treatment method, and initial theoretical concentration of the target, corresponding to each target molecule in the experiment, were consistent with those in Comparative Examples 1 and 2. After a target was added to the system, the target was uniformly dispersed by ultrasonication at 37° C. for half an hour and then shaken in a 37° C. constant temperature air shaker, and samples were collected after different incubation time, i.e. 0.5 h, 1 h, 2 h, 3 h, 4 h, and 6 h.

[4] = cited from earlier work
[5] = binary system with 0.5% polymer 101, incubation 0.5 h
[6] = binary system with 0.5% polymer 101, incubation 3 h
[7] = binary system with 0.5% polymer 101, incubation 6 h
[8] = binary system with 0.5% polymer 102, incubation 0.5 h
[9] = binary system with 0.5% polymer 102, incubation 3 h
[10] = binary system with 0.5% polymer 102, incubation 6 h
[11] = binary system with 0.5% polymer 103, incubation 0.5 h
[12] = binary system with 0.5% polymer 103, incubation 3 h
[13] = binary system with 0.5% polymer 103, incubation 6 h
[14] = binary system with 0.5% polymer 106, incubation 0.5 h
[15] = binary system with 0.5% polymer 106, incubation 3 h
[16] = binary system with 0.5% polymer 106, incubation 6 h
[17] = binary system with 0.5% polymer 107, incubation 0.5 h
[18] = binary system with 0.5% polymer 107, incubation 3 h
[19] = binary system with 0.5% polymer 107, incubation 6 h
[20] = system built by polymers 102H and 103E3 with carrier 302
[21] = ternary: 102H (0.25% where stated) + 301, carrier % not stated

| Structure (SMILES) | Concentration of the target in the solution measured after different incubation time [2, 5] [µg/mL] | Concentration of the target in the solution measured after different incubation time [2, 6] [µg/mL] | Concentration of the target in the solution measured after different incubation time [2, 7] [µg/mL] | Concentration of the target in the solution measured after different incubation time [2, 8] [µg/mL] | Concentration of the target in the solution measured after different incubation time [2, 9] [µg/mL] | Concentration of the target in the solution measured after different incubation time [2, 10] [µg/mL] | Concentration of the target in the solution measured after different incubation time [2, 11] [µg/mL] | Concentration of the target in the solution measured after different incubation time [2, 12] [µg/mL] | Concentration of the target in the solution measured after different incubation time [2, 13] [µg/mL] | Concentration of the target in the solution measured after different incubation time [2, 14] [µg/mL] | Concentration of the target in the solution measured after different incubation time [2, 15] [µg/mL] | Concentration of the target in the solution measured after different incubation time [2, 16] [µg/mL] | Concentration of the target in the solution measured after different incubation time [2, 17] [µg/mL] | Concentration of the target in the solution measured after different incubation time [2, 18] [µg/mL] | Concentration of the target in the solution measured after different incubation time [2, 19] [µg/mL] | LogD7.4 or Log P [4] | further results |
| --- | --- | --- | --- | --- | --- | --- | --- | --- | --- | --- | --- | --- | --- | --- | --- | --- | --- |
| Cc1cn(-c2cc(NC(=O)c3ccc(C)c(Nc4nccc(-c5cccnc5)n4)c3)cc(C(F)(F)F)c2)cn1 [Nilotinib] | 117.0 | 145.8 | 149.9 | 96.7 | 188.9 | 189.9 | 125.2 | 159.3 | 181.5 | 121.2 | 81.8 | 50.0 | 107.2 | 62.3 | 52.3 | 5.35 | Concentration of guest molecule measured after different incubated time ([1]; 0.5 h, 0.05% SDS in pH 6.8 phosphate buffer): 35.2 µg/mL; Concentration of guest molecule measured after different incubated time ([1]; 3 h, 0.05% SDS in pH 6.8 phosphate buffer): 24.2 µg/mL; Concentration of guest molecule measured after different incubated time ([1]; 6 h, 0.05% SDS in pH 6.8 phosphate buffer): 17.9 µg/mL; Concentration of the target in the solution measured after different incubation time ([2]; binary system with 0.5% polymer 104, incubation 0.5 h): 77.5 µg/mL; Concentration of the target in the solution measured after different incubation time ([2]; binary system with 0.5% polymer 104, incubation 3 h): 84.9 µg/mL; Concentration of the target in the solution measured after different incubation time ([2]; binary system with 0.5% polymer 104, incubation 6 h): 61.4 µg/mL; Times that of the initial medium ([2]; binary: 0.5% 102H, 6 h): about 8.5 times; Times that of the initial medium ([2]; binary: 0.5% 104, 6 h): ~2.7 times; Concentration of guest molecule in solution [3, 20]: 391.1 µg/mL; Encapsulation rate for the guest molecule [3, 20]: 97.8%; Concentration of guest molecule in solution [3, 21]: 227.2 µg/mL; Times that of the initial medium [3, 21]: 10 times; Concentration of guest molecule in solution ([3]; ternary: 102H + 310, carrier % not stated): 317.6 µg/mL; Concentration of guest molecule in solution ([3]; ternary: 102H + 313, carrier % not given): 365.2 µg/mL; Concentration of guest molecule in solution ([3]; ternary: 102M + 310): 344.0 µg/mL; Concentration of guest molecule in solution ([3]; ternary: 102M + 313): 328.9 µg/mL; Dissociation constant ([4]; basic drug): 5.92; Log D6.8 ([4]; pH 6.8): 5.27 |
| CCOC(=O)C1=C(C)NC(C)=C(C(=O)OC)C1c1cccc(Cl)c1Cl (stereo not shown) [Felodipine] | 144.8 | 152.8 | 147.5 | 459.9 | 472.0 | 459.4 | 18.9 | 18.9 | 22.2 | 33.5 | 30.2 | 23.6 | 51.2 | 26.7 | 11.8 | 3.90 | Concentration of guest molecule measured after different incubated time ([1]; 0.5 h, 0.05% Tween 20 in pH 6.8 phosphate buffer): 18.1 µg/mL; Concentration of guest molecule measured after different incubated time ([1]; 3 h, 0.05% Tween 20 in pH 6.8 phosphate buffer): 17.8 µg/mL; Concentration of guest molecule measured after different incubated time ([1]; 6 h, 0.05% Tween 20 in pH 6.8 phosphate buffer): 20.4 µg/mL; Concentration of guest molecule in solution ([2]; binary: 0.25% 102H, 6 h): 276 µg/mL; Times that of the initial medium ([2]; binary: 0.25% 102H, 6 h): about 13.5 times; Concentration of guest molecule in solution ([3]; ternary: 0.25% 102H + 1.0% 313): 662 µg/mL; Times that of the initial medium ([3]; ternary: 0.25% 102H + 1.0% 313): about 32.5 times |
| COC1=CC(=O)C[C@@H](C)[C@]12Oc1c(Cl)c(OC)cc(OC)c1C2=O [Griseofulvin, griseofulvin] | 221.0 | 187.9 | 171.7 | 24.1 | 23.2 | 28.6 | 51.8 | 39.8 | 39.1 | 67.9 | 62.8 | 60.7 | 109.2 | 93.9 | 88.6 | 2.17 | Concentration of guest molecule measured after different incubated time ([1]; 0.5 h, 0.1% SDS in pH 6.8 phosphate buffer): 35.6 µg/mL; Concentration of guest molecule measured after different incubated time ([1]; 3 h, 0.1% SDS in pH 6.8 phosphate buffer): 27.4 µg/mL; Concentration of guest molecule measured after different incubated time ([1]; 6 h, 0.1% SDS in pH 6.8 phosphate buffer): 24.1 µg/mL; Concentration of the target in the solution measured after different incubation time ([2]; binary system with 0.5% polymer 110, incubation 0.5 h): 27.1 µg/mL; Concentration of the target in the solution measured after different incubation time ([2]; binary system with 0.5% polymer 110, incubation 3 h): 23.6 µg/mL; Concentration of the target in the solution measured after different incubation time ([2]; binary system with 0.5% polymer 110, incubation 6 h): 26.3 µg/mL |
